“And” between values parts separate entries of the source, which are not always exact repeats. Equal entries are not always repeated. “Also recorded” adds a separate entry of the source. Where two headings read alike, the source gives them in different places.
Key:
[1] = tested on: asthmatic mice; experiment: Airway resistance (Raw) response to methacholine in murine model of asthma (forced oscillation); format: in vivo, Balb/cJ mice
Experimental: Balb/cJ mice aged 6 weeks (Jackson Animal Laboratory, Bar Harbor, Me.) were housed under specific pathogen-free conditions and fed a chicken ovalbumin-free diet. The Animal Research Ethics Boards of both the University of Houston and the Baylor College of Medicine approved all experiments reported here. […] Mice were sensitized with subcutaneous injection of 25 μg of ovalbumin adsorbed to aluminum hydroxide on protocol days 2, 9, and 16. Subsequently, mice were given 50 μL of saline solution containing 25 μg of ovalbumin intranasally, on a daily basis, from protocol days 23 through 27. A group of ovalbumin-sensitized saline-challenged mice serves as controls for systemic sensitization and respiratory challenges with ovalbumin. Prior to intranasal administrations, mice were sedated with halothane vapor.
To examine the effects of duration of β-adrenergic ligand therapy on the phenotype of the murine model of asthma, the experimental drugs were administered either acutely or chronically to different groups of asthmatic mice.
Asthmatic mice on acute therapy were given a single intravenous bolus infusion of either β-adrenergic drug or normal saline on protocol day 28, 15 minutes before airway responsiveness to methacholine was determined. […] […] […] These concentrations were chosen based on those producing therapeutic effects in mice in previously published studies. The non-asthmatic mice were fed normal chow.
On protocol day 28, mice were anesthetized, tracheotomized, and connected to a computer-controlled small animal ventilator (Flexivent, Scientific Respiratory Equipment, Inc., Montreal, Canada). Airway resistance (Raw) was measured using the forced oscillation technique. The cellular composition of bronchoalveolar lavage fluid (BALF) was also determined.
To induce airway constriction, a solution containing 150 μg/mL of acetyl-α-methylcholine chloride (methacholine) (Sigma Chemical, St. Louis, Mo.) was infused intravenously at constant rates using a syringe infusion pump (Raze Scientific Instruments, Stanford, Conn.). […] Each methacholine dose was administered for 3 to 5 minutes, during which data were sampled at 1-minute intervals and then averaged.
The complex input impedance of the respiratory system was computed and the value of the real part of respiratory system impedance at 19.75 Hz was taken to reflect the magnitude of airway resistance (Raw). To examine the degree of airway responsiveness of each animal, the values for Raw as a function of methacholine doses were plotted. The largest value for Raw achieved in response to methacholine stimulation was referred to as Rawpeak. For mice that achieved a plateau in the methacholine dose-Raw response curve, the ED50 was calculated by linear interpolation using the GraphPad Prism4 (GraphPad Software, Inc.). […] The Bonferroni test was used to examine the statistical differences between experimental groups. The effects of acute drug treatments on baseline respiratory system mechanics were assessed using a two-tailed paired t-test. A value of P<0.05 was considered significant.
For these experiments, salbutamol was used for chronic administration at 0.5 mg/kg/day with a minipump and for acute administration at 0.15 mg/kg by i.v. bolus 15 minutes prior to challenge. Alprenolol was used at a high dose of 7200 ppm in chow or at a low dose of 720 ppm in chow. Carvedilol was used at a high dose of 2400 ppm in chow or at a low dose of 720 ppm in chow.

[2] = target: β2-adrenergic receptor (Mus musculus, UniProt P18762); format: binding, mice
Experimental: (§1) β2-adrenergic receptor numbers were measured in asthmatic mice as follows. […] Mice were sacrificed and lung membranes were isolated as follows. Frozen lung tissue was homogenized in an ice-cold buffer containing 0.32 M sucrose and 25 mM Tris (pH 7.4) using a polytron (Pro 200, Pro Scientific, Inc.). The homogenate was centrifuged at 1000×g for 10 min at 4° C. The resulting supernatant was centrifuged at 40,000×g for 20 min at 4° C. The pellet was suspended in an ice-cold 25 mM Tris-HCl buffer (pH 7.4) and centrifuged at 40,000×g for 20 min at 4° C. The final pellet was suspended in 200 μL of 25 mM Tris-HCl (pH 7.4); membrane protein concentration was determined by BCA protein assay kit. […] The incubation was done at 37° C. for 2 h and terminated by rapid vacuum filtration through glass fiber filters. The filters were washed three times with 250 μL of cold wash buffer (25 mM Tris-HCl, pH 7.4) and the radioactivity determined in a counter. […] Receptor densities are expressed as femtomoles of sites per milligram of protein. Bmax is determined by nonlinear regression of the saturation binding curves.

[3] = tested on: β2-adrenergic receptor; format: binding, mice; conditions: 2 days of administration
Experimental: as §1

[4] = tested on: β2-adrenergic receptor; experiment: Immunohistochemistry of β2-adrenergic receptor levels in lungs; format: in vivo, mice; conditions: chronic treatment vs untreated animals
Experimental: The mice were sacrificed and the lungs excised. […] Lungs were embedded in OCT and 12-μm sections cut with a Tissue-Tek II cryostat. […] After 3 washes in PBS, the slides were blocked with 5% milk in PBS for 1 h, and then incubated overnight with anti-β2-adrenergic receptor antibody (1:200, Santa Cruz Biotechnology) in blocking solution. Slides were washed in PBS and incubated with secondary antibody (1:200, Cy3 goat anti-rabbit, 16 h at 4° C.). […] After washing with PBS, coverslips were mounted and viewed by epifluorescent microscopy.

[5] = tested on: ovalbumin-sensitized, allergen-challenged mice; experiment: Acute nadolol and aminophylline, methacholine-induced bronchoconstriction; format: in vivo; conditions: nadolol 0.72 mg/kg i.p. 15 minutes prior to methacholine
Experimental: At time point 1 (time=−10 min) baseline airway resistance of the mice was determined.

[6] = tested on: asthmatic mice; experiment: Total number of immune cells in BALF (Example 12); format: in vivo; conditions: did not reach statistical significance
Experimental: (§2) Bronchial alveolar lavage fluid was collected from treated animals and total immune cell number was determined and the total number of eosinophils was also determined. Additionally, the interleukin 10 (IL-10) levels were determined in the mice.

[7] = tested on: interleukin 10 (IL-10); experiment: IL-10 levels in BALF; format: in vivo, mice
Experimental: as §2

[8] = tested on: adults with mild asthma; conditions: human, in vivo
From the text: (§3) Study Design: The study is an open-label Phase IIa, proof of principle, 11-week, dose escalation study in mild asthma. Up to twelve subjects with mild asthma, not taking inhaled corticosteroids or other controller medications are to be recruited from a single clinical research center. […] Combivent rescue medication was provided to subjects during the run-in period to replace their own rescue medication which typically is Albuterol (salbutamol a beta 2 partial agonist).
(§4) The subjects are maintained at their maximum tolerated dose for a minimum of 4 weeks.
(§5) All the following criteria had to be met for dose escalation otherwise the dose was kept at maintenance level (same dose), reduced to previous lower tolerated dose or the subject was terminated from the study.
(§6) Data collected at baseline and during study visits include lung function (spirometry—FEV1 and daily peak flow rates —PEFR), asthma symptoms via dairy cards), heart rate and blood pressure. In addition, airway hyper-responsiveness (methacholine challenge test—PC20) and Asthma Control Questionaire (Juniper ACQ) will be performed. Blood is collected to monitor beta adrenergic receptor levels in lymphocytes and baseline laboratory evaluation.

[9] = tested on: asthmatic mice; conditions: Callaerts-Vegh et al. 2004, cited from earlier work
[10] = cited from earlier work
[11] = tested on: adults with mild asthma; experiment: Phase IIa clinical trial of chronic oral nadolol, tolerability and cardiovascular function; conditions: for Heart rate at 4 hrs after administration of dose: subject 003, 80 mg
From the text: as §3, §4, §5, §6

Chain of β2-adrenergic receptor (Mus musculus, UniProt P18762) (P18762 whole entry): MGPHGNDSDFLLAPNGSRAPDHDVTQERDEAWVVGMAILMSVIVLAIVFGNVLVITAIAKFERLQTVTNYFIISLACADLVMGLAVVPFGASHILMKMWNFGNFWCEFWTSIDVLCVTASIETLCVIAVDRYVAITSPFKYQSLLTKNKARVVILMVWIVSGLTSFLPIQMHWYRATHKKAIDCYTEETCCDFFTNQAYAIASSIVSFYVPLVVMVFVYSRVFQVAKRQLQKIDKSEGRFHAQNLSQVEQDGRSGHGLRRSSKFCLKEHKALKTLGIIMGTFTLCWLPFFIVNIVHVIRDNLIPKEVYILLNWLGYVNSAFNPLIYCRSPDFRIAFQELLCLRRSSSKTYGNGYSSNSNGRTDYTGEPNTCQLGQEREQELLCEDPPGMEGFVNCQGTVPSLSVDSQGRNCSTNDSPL

SMILES: CC(C)(C)NCC(O)COc1cccc2c1CC(O)C(O)C2 (stereo not drawn) [nadolol]
- airway resistance (Raw) ([1]; 1 ppm in chow): identical to the untreated mice
- Decreased Raw ([1]; 15 minutes of administration): no
- Decreased Raw ([1]; 2 days of administration): yes
- Decreased Raw ([1]; 28 days of administration): yes
- airway function ([1]; acute, parenteral administration, asthmatic mice): significant reduction in airway function
- airway responsiveness to methacholine provocation (Raw) ([1]; asthmatic mice, acute: single intravenous bolus 15 minutes before methacholine): enhanced the airway responsiveness
- airway responsiveness to methacholine provocation (Raw) ([1]; asthmatic mice, chronic administration for 28 days): produced a decrease in airway responsiveness, which was more pronounced than that caused by carvedilol treatment
- protection from airway hyperresponsiveness ([1]; chronic administration, low and high doses in chow (FIGS. 8D-8G)): providing protection from airway hyperresponsiveness
- observed airway adverse effects ([1]; orally in the animal chow at 250 ppm): noticeably wheezing and airway distress
- Bmax ([2]; 15 Minutes drug treatment, lung membranes of asthmatic mice, mean±SEM): 181.9 ± 48.28 femtomoles of sites per milligram of protein
- βmax ([2]; 28 Days drug treatment, lung membranes of asthmatic mice, mean±SEM): 785.5 ± 154.8 femtomoles of sites per milligram of protein
- Increased β2AR density ([2]; 15 minutes of administration): no
- Increased β2AR density ([2]; 28 days of administration): showed an increase in receptor density at both 2 days and 28 days
- Increased β2AR density ([2]; 28 days of administration, listed as Nadolol): yes
- level of the β2-adrenergic receptor ([2]; chronic treatment, asthmatic mice): nearly eightfold increase
- Increased β2AR density [3]: showed an increase in receptor density at both 2 days and 28 days
- Increased β2AR density ([3]; listed as Nadolol): yes
- labeling with anti-β2-adrenergic receptor antibodies in lungs [4]: considerably more intense
- baseline airway resistance [5]: same baseline airway resistance as non-drug treated sensitized and allergen-challenged mice
- lower number of cells in BALF compared to non-drug-treated (S/C) mice ([6]; acute treatment): approximately 25%
- lower number of cells in BALF compared to non-drug-treated (S/C) mice ([6]; chronic treatment): approximately 25%
- IL-10 levels in BALF ([7]; acute treatment, P<0.01 vs S/C): a reduction was observed
- IL-10 levels in BALF ([7]; chronic treatment, P<0.05 vs NS/NC, P<0.001 vs S/C): statistically significant increases
- serious adverse events due to study drug administration [8]: No serious adverse events
- tolerability of the first dose [8]: All subjects tolerated the first 10 mg dose
- airway hyperresponsiveness ([9]; administered acutely): worsens airway hyperresponsiveness
- airway hyperresponsiveness ([9]; administered chronically): prevents airway hyperresponsiveness
- time to maximum drug in the bloodstream ([10]; immediate-release oral tablets once a day): about 3.5 hours
- half-life ([10]; immediate-release oral tablets): about 16 hours
- Reason for Maximum Tolerated Dose: Blood Pressure ([11]; per subject): 110/68 mm Hg and 91/63 mm Hg
- Reason for Maximum Tolerated Dose: FEV1 ([11]; per subject): FEV1 78% predicted; also recorded: FEV1 at 68% predicted
- Reason for Maximum Tolerated Dose: Heart Rate ([11]; per subject): Heart Rate 48 bpm
- Nadolol Max Tolerated Dose ([11]; per subject (001-005), once daily oral): 40 mg (2×) and 20 mg (2×) and 10 mg
- Heart Rate Visit 9 ([11]; per subject, on maximum tolerated dose): 71 bpm and 70 bpm (2×) and 72 bpm and 53 bpm
- Heart rate at 4 hrs after administration of dose ([11]; visit 5): 42 bpm
- Heart rate at 4 hrs after administration of dose ([11]; visit 6): 48 bpm

Source: patent US7528175B2, “Method of treating airway diseases with beta-adrenergic inverse agonists” (Inverseon, Inc., priority 2005, dated 2009)
